Assay results taken from patent publication US11117900B2 (Vertex Pharmaceuticals Incorporated, priority 2012, dated 2021).

Test system: HCT116 colorectal cancer cells
Test: Cisplatin sensitization assay (96 h MTS cell viability);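 further: compound concentration needed to lower the IC50 of Cisplatin alone by a set fold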
Type: cell-based
Conditions: Cisplatin sensitization value
Method in brief: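 The MTS viability read, after 1 h with reagent, followed 96 h of co-treatment at 37° C. in 5% CO2. Both compound and cisplatin were titrated 2-fold from a 10 μM top final concentration in a complete concentration matrix on HCT116 cells. Scores +++/++/+ reflect cisplatin sensitization value ranges.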

| Structure (SMILES) | Cisplatin Sensitization Assay |
| --- | --- |
| Nc1nn2cc(F)cnc2c1C(=O)Nc1cnccc1N1CCC(S(=O)(=O)N2CCC2)CC1 [I-N-271, 2-amino-N-(4-(4-(azetidin-1-ylsulfonyl)piperidin-1-yl)pyridin-3-yl)-6-fluoropyrazolo[1,5-a]pyrimidine-3-carboxamide] | +++ (Compounds with a Cisplatin sensitization value of <0.02 μM are marked with “+++.”) |
| CN(C)CCNC(=O)C1CCN(c2c(F)cncc2NC(=O)c2c(N)nn3cc(F)cnc23)CC1 [I-G-30, 2-amino-N-(4-(4-((2-(dimethylamino)ethyl)carbamoyl)piperidin-1-yl)-5-fluoropyridin-3-yl)-6-fluoropyrazolo[1,5-a]pyrimidine-3-carboxamide] | +++ (Compounds with a Cisplatin sensitization value of <0.02 μM are marked with “+++.”) |
| CN(C)C1CCN(c2ccncc2NC(=O)c2c(N)nn3cc(Cl)cnc23)CC1 [I-N-37, 2-amino-6-chloro-N-(4-(4-(dimethylamino)piperidin-1-yl)pyridin-3-yl)pyrazolo[1,5-a]pyrimidine-3-carboxamide] | ++ (Compounds with a Cisplatin sensitization value >0.02 μM but <0.2 μM are marked with “++.”) |
| Nc1nn2cc(F)cnc2c1C(=O)Nc1cnccc1N1CCN2CCOC[C@H]2C1 [I-N-116, (R)-2-amino-6-fluoro-N-(4-(hexahydropyrazino[2,1-c][1,4]oxazin-8(1H)-yl)pyridin-3-yl)pyrazolo[1,5-a]pyrimidine-3-carboxamide] | ++ (Compounds with a Cisplatin sensitization value >0.02 μM but <0.2 μM are marked with “++.”) |
| Nc1nn2cc(F)cnc2c1C(=O)Nc1cnccc1N1CCN2C(=O)CCCC2C1 (stereo not shown) [I-N-244, 2-amino-6-fluoro-N-(4-(6-oxohexahydro-1H-pyrido[1,2-a]pyrazin-2(6H)-yl)pyridin-3-yl)pyrazolo[1,5-a]pyrimidine-3-carboxamide] | +++ (Compounds with a Cisplatin sensitization value of <0.02 μM are marked with “+++.”) |
| Nc1nn2cc(Cl)cnc2c1C(=O)Nc1cnccc1OCCN1CCOCC1 [I-O-60, 2-amino-6-chloro-N-(4-(2-morpholinoethoxy)pyridin-3-yl)pyrazolo[1,5-a]pyrimidine-3-carboxamide] | ++ (Compounds with a Cisplatin sensitization value >0.02 μM but <0.2 μM are marked with “++.”) |
| Nc1nn2cc(F)cnc2c1C(=O)Nc1cncc(F)c1N1CCC(C(=O)N2CC(N3CCCC3)C2)CC1 [I-G-43, 2-amino-6-fluoro-N-(5-fluoro-4-(4-(3-(pyrrolidin-1-yl)azetidine-1-carbonyl)piperidin-1-yl)pyridin-3-yl)pyrazolo[1,5-a]pyrimidine-3-carboxamide] | +++ (Compounds with a Cisplatin sensitization value of <0.02 μM are marked with “+++.”) |
| CN1CCOC2(CCN(c3c(F)cncc3NC(=O)c3c(N)nn4cc(F)cnc34)CC2)C1 [I-N-272, 2-amino-6-fluoro-N-(5-fluoro-4-(4-methyl-1-oxa-4,9-diazaspiro[5.5]undecan-9-yl)pyridin-3-yl)pyrazolo[1,5-a]pyrimidine-3-carboxamide] | +++ (Compounds with a Cisplatin sensitization value of <0.02 μM are marked with “+++.”) |
| Nc1nn2cc(F)cnc2c1C(=O)Nc1cnccc1N1CCN(S(=O)(=O)C2CCOC2)CC1 (stereo not shown) [I-N-179, 2-amino-6-fluoro-N-(4-(4-((tetrahydrofuran-3-yl)sulfonyl)piperazin-1-yl)pyridin-3-yl)pyrazolo[1,5-a]pyrimidine-3-carboxamide] | +++ (Compounds with a Cisplatin sensitization value of <0.02 μM are marked with “+++.”) |
| CN1CCC(Oc2c(F)cncc2NC(=O)c2c(N)nn3cc(F)cnc23)CC1 [I-O-89, 2-amino-6-fluoro-N-(5-fluoro-4-((1-methylpiperidin-4-yl)oxy)pyridin-3-yl)pyrazolo[1,5-a]pyrimidine-3-carboxamide] | ++ (Compounds with a Cisplatin sensitization value >0.02 μM but <0.2 μM are marked with “++.”) |
| CC(C)(C)Oc1ccncc1NC(=O)c1c(N)nn2cc(F)cnc12 [I-O-88, 2-amino-N-(4-(tert-butoxy)pyridin-3-yl)-6-fluoropyrazolo[1,5-a]pyrimidine-3-carboxamide] | +++ (Compounds with a Cisplatin sensitization value of <0.02 μM are marked with “+++.”) |
| Nc1nn2cc(Cl)cnc2c1C(=O)Nc1cnccc1N1CCC(N2CCC23COC3)CC1 [I-N-109, N-(4-(4-(6-oxa-1-azaspiro[3.3]heptan-1-yl)piperidin-1-yl)pyridin-3-yl)-2-amino-6-chloropyrazolo[1,5-a]pyrimidine-3-carboxamide] | +++ (Compounds with a Cisplatin sensitization value of <0.02 μM are marked with “+++.”) |
| CN1CCN(c2cc(Cl)ncc2NC(=O)c2c(N)nn3cc(Cl)cnc23)CC1 [I-N-52, 2-amino-6-chloro-N-(6-chloro-4-(4-methylpiperazin-1-yl)pyridin-3-yl)pyrazolo[1,5-a]pyrimidine-3-carboxamide] | ++ (Compounds with a Cisplatin sensitization value >0.02 μM but <0.2 μM are marked with “++.”) |
| CN1CCC[C@H]1COc1ccncc1NC(=O)c1c(N)nn2cc(Cl)cnc12 [I-O-50, (S)-2-amino-6-chloro-N-(4-((1-methylpyrrolidin-2-yl)methoxy)pyridin-3-yl)pyrazolo[1,5-a]pyrimidine-3-carboxamide] | + (Compounds with a Cisplatin sensitization value >0.2 μM but <5 μM are marked with “+.”) |
| COCC1CCN(c2ccncc2NC(=O)c2c(N)nn3cc(F)cnc23)CC1 [I-N-282, 2-amino-6-fluoro-N-(4-(4-(methoxymethyl)piperidin-1-yl)pyridin-3-yl)pyrazolo[1,5-a]pyrimidine-3-carboxamide] | +++ (Compounds with a Cisplatin sensitization value of <0.02 μM are marked with “+++.”) |
| COCC1CN(c2ccncc2NC(=O)c2c(N)nn3cc(Cl)cnc23)CCN1C (stereo not shown) [I-N-47, 2-amino-6-chloro-N-(4-(3-(methoxymethyl)-4-methylpiperazin-1-yl)pyridin-3-yl)pyrazolo[1,5-a]pyrimidine-3-carboxamide] | ++ (Compounds with a Cisplatin sensitization value >0.02 μM but <0.2 μM are marked with “++.”) |
| CC1(O)CCN(c2ccncc2NC(=O)c2c(N)nn3cc(Cl)cnc23)CC1 [I-N-66, 2-amino-6-chloro-N-(4-(4-hydroxy-4-methylpiperidin-1-yl)pyridin-3-yl)pyrazolo[1,5-a]pyrimidine-3-carboxamide] | +++ (Compounds with a Cisplatin sensitization value of <0.02 μM are marked with “+++.”) |
| CN1CCN(c2c(Cl)cncc2NC(=O)c2c(N)nn3cc(F)cnc23)CC1 [I-N-85, 2-amino-N-(5-chloro-4-(4-methylpiperazin-1-yl)pyridin-3-yl)-6-fluoropyrazolo[1,5-a]pyrimidine-3-carboxamide] | ++ (Compounds with a Cisplatin sensitization value >0.02 μM but <0.2 μM are marked with “++.”) |
| Nc1nn2cc(F)cnc2c1C(=O)Nc1cncc(F)c1N1CCN2C(=O)OC[C@@H]2C1 [I-N-248, (S)-2-amino-6-fluoro-N-(5-fluoro-4-(3-oxotetrahydro-1H-oxazolo[3,4-a]pyrazin-7(3H)-yl)pyridin-3-yl)pyrazolo[1,5-a]pyrimidine-3-carboxamide] | ++ (Compounds with a Cisplatin sensitization value >0.02 μM but <0.2 μM are marked with “++.”) |
| CN1CCN(c2c(F)cncc2NC(=O)c2c(N)nn3cc(F)cnc23)CC1=O [I-N-212, 2-amino-6-fluoro-N-(5-fluoro-4-(4-methyl-3-oxopiperazin-1-yl)pyridin-3-yl)pyrazolo[1,5-a]pyrimidine-3-carboxamide] | +++ (Compounds with a Cisplatin sensitization value of <0.02 μM are marked with “+++.”) |
| Nc1nn2cc(F)cnc2c1C(=O)Nc1cnccc1-n1cccn1 [I-N-26, N-(4-(1H-pyrazol-1-yl)pyridin-3-yl)-2-amino-6-fluoropyrazolo[1,5-a]pyrimidine-3-carboxamide] | + (Compounds with a Cisplatin sensitization value >0.2 μM but <5 μM are marked with “+.”) |
| Nc1nn2cc(F)cnc2c1C(=O)Nc1cncc(F)c1N1CCC(OCCN2CCCC2)CC1 [I-N-167, 2-amino-6-fluoro-N-(5-fluoro-4-(4-(2-(pyrrolidin-1-yl)ethoxy)piperidin-1-yl)pyridin-3-yl)pyrazolo[1,5-a]pyrimidine-3-carboxamide] | +++ (Compounds with a Cisplatin sensitization value of <0.02 μM are marked with “+++.”) |
| CN1CCC(C(=O)N2CC=C(c3c(F)cncc3NC(=O)c3c(N)nn4cc(F)cnc34)CC2)CC1 [I-C-38, 2-amino-6-fluoro-N-(5-fluoro-1′-(1-methylpiperidine-4-carbonyl)-1′,2′,3′,6′-tetrahydro-[4,4′-bipyridin]-3-yl)pyrazolo[1,5-a]pyrimidine-3-carboxamide] | ++ (Compounds with a Cisplatin sensitization value >0.02 μM but <0.2 μM are marked with “++.”) |
| Nc1nn2cc(F)cnc2c1C(=O)Nc1cncc(F)c1N1CCC(C(=O)N2CC(N3CCC3)C2)CC1 [I-G-49, N-(4-(4-([1,3′-biazetidine]-1′-carbonyl)piperidin-1-yl)-5-fluoropyridin-3-yl)-2-amino-6-fluoropyrazolo[1,5-a]pyrimidine-3-carboxamide] | +++ (Compounds with a Cisplatin sensitization value of <0.02 μM are marked with “+++.”) |
| Nc1nn2cc(F)cnc2c1C(=O)Nc1cnccc1N1CCC(C(=O)N2CCOCC2)CC1 [I-G-85, 2-amino-6-fluoro-N-(4-(4-(morpholine-4-carbonyl)piperidin-1-yl)pyridin-3-yl)pyrazolo[1,5-a]pyrimidine-3-carboxamide] | +++ (Compounds with a Cisplatin sensitization value of <0.02 μM are marked with “+++.”) |
